Assay results: patent US20250248980A1, “IMMUNE MODULATORY AGENTS” (PRESIDENT AND FELLOWS OF HARVARD COLLEGE, priority 2022, published 2025)
“Also recorded” adds a separate entry of the source. Where two headings read alike, the source gives them in different places.

Columns and labels:
Type in all cases: cell-based
[1] = target: T1, TNF-a receptor (TNF-R1 reporter cells) (Homo sapiens, UniProt P19438); assay: TNF-a-receptor GFP reporter cell screen; conditions: reducing TNF-a-receptor reporter activities; for IC50: GFP percentage by microscope, 48 hours; for Emax: maximal effect at high compound concentrations
T1 construct: expressed in transfected cells; development described in WO2022125865A2
Description: (§1) FIG. 5 is a dot plot showing the identification of small-molecule compounds that reduce IL-17A or TNF-a receptor activities. Small-molecule screens were performed with 114,665 compounds. Individual compounds were added to IL-17A-reporters or TNF-a-reporters following the addition of respective ligands such as IL-17A or TNF-a (25 ng/ml). The reporter cells were then incubated for additional 48 hours before subjecting them for microscopic analyses (GFP percentage was measured by microscope). Anti-IL17A and anti-TNFa antibodies were used as the positive controls.
The IL-17RA/IL-17RC reporter system was used to identify the IL-17a-specific immune modulatory agents, as described herein (see e.g., compounds (1)-(16)). Furthermore, the IL-17A systems and methods were applied to generate other cytokine/cytokine receptor reporter system (tTA fused onto one receptor subunit via a protease cleavage site, TEV fused to another receptor subunit, optimal linkers inserted between different proteins to ensure high signal-to-background ratio; e.g., for identifying TNF-α-specific immune modulatory agents). The screening platform provided herein was used to identify immune modulatory agents including, but not limited to, small molecules and proteins that modulate IL-17A or TNF-α cytokine signaling.
(§2) Two thousand reporter cells per well (384-well plates) were seeded in 30 ul cell culture medium with either IL-17A (25 ng/ml, unless otherwise indicated) or TNFa ligand (25 ng/ml, unless otherwise indicated); additional screens were performed with IL-17A at 7.5 ng/ml. Then 100 nl of the individual compound was added by a pin transfer and cultured for two days in a CO2 incubator. For the cell viability test, 10 ul HOECHST 33342 was added and incubated for 10 min, followed by the addition of 10 ul 4% PFA. After a 10 min incubation, the reporter cells were washed twice with phosphate-buffered saline (PBS) and kept in 30 ul PBS. The images were acquired and analyzed using an IMAGEXPRESS confocal microscope. For storage, plates were sealed with black light-absorbing films.

[2] = test system: IL17A-dependent gene expression in mouse keratinocytes; assay: IL17A-dependent gene expression in mouse keratinocytes (RT-qPCR, secondary assay, FIG. 11); conditions: 10 μM compound, 5 ng/ml IL17A, 24 hours
Description: Mouse keratinocytes were cultured and stimulated with 5 ng/ml IL17A for 24 hours. During the treatment, 10 μM of each compound was added, and reverse transcription-quantitative polymerase chain reaction (RT-qPCR) was used for the gene expression level analyses of the following genes: cxcl1, cxcl2, cxcl5, 24p3, zc3h12a, S100a8, and S100a9. The top-down order of the treatment conditions indicated in the legend correspond to the left-right order of the bars for each gene. […] Compounds C770-0711 (2), C770-0720 (3), 60546479 (6), C881-0413 (9), and LAS 51593897 (11) are also of interest (see grey boxes).

[3] = target: T2, IL-17 receptor (the IL-17RA-IL-17RC heterodimer) (Mus musculus, UniProt Q60943+Q8K4C2, F156E); assay: IL-17A-receptor (IL-17RA/IL-17RC) GFP reporter cell screen; conditions: for specificity for IL-17A-receptor reporter over other cytokine receptor reporters: in words; for Emax / IC50: reducing IL-17A-receptor reporter activities; for Emax: maximal effect at high compound concentrations; for IC50: GFP percentage by microscope, 48 hours
T2 sequence (Q60943 32-358): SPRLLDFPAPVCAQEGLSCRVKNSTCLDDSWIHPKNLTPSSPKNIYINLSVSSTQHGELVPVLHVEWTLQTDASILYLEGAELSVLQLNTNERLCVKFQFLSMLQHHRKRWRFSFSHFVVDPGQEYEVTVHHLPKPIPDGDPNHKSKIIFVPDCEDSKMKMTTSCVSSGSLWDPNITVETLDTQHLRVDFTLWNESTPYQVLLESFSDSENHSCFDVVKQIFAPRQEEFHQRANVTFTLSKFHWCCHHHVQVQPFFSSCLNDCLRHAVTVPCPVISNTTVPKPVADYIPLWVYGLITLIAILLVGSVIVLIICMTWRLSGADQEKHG
T2 sequence (Q8K4C2 22-500 F156E): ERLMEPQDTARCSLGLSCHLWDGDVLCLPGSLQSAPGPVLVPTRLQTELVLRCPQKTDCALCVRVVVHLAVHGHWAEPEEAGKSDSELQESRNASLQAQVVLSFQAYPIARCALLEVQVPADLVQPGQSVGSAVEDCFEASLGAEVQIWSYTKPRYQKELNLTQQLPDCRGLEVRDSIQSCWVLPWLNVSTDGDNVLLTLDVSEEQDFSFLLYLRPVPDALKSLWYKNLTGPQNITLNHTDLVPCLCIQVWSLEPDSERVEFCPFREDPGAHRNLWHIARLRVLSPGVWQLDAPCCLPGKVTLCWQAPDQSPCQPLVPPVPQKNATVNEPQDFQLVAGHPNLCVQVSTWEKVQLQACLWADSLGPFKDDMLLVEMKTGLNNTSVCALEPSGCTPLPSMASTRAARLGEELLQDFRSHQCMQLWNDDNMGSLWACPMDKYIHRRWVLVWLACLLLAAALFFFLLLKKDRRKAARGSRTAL
T2 sequence (Q62386 26-158 partner): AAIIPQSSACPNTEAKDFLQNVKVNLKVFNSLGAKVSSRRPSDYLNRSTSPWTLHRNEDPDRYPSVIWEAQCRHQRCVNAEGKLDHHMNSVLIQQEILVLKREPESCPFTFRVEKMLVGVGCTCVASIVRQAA
Description: as §1
To identify small molecule compounds that control IL-17R activity, a screening platform was used to monitor IL-17a binding to its receptor. Upon IL-17a binding to its receptor subunit A (IL-17RA), another receptor subunit IL-17RC is recruited, and these two subunits form a heterodimer. In the exemplary reporter system, a transcription factor (tTA) was tethered, via a protease cleavage site, to IL-17RA. In addition, a tobacco etch virus (TEV) protease was fused to the receptor subunit IL-17RC. Upon the IL-17a-dependent recruitment of IL-17RC-TEV to IL-17RA-tTA, the tTA is cleaved off from its membrane anchor IL-17RA. The released tTA then enters the nucleus and activates the reporter gene (e.g., in this case, GFP). The IL-17RA/RC reporter system responds highly selectively to IL-17a, but not to other related IL-17 family cytokines (except IL-17f).
as §2

| Structure (SMILES) | IC50 [1] | Emax [1] | also measured |
| --- | --- | --- | --- |
| CCOC(=O)c1ccccc1NC(=O)N1CCCN(S(=O)(=O)c2ccc3c(ccn3CC)c2)CC1 [Compound 36] | 7720 nM | 92% |  |
| CCN1CCOc2ccccc2CCCC2(CN(C(=O)c3cc(-c4ccccc4F)no3)CCO2)C1=O (racemic) [Compound 11] |  |  | effect on IL17A-dependent gene expression [2]: robust inhibitory effects |
| O=C(c1ccccc1OC(F)(F)C(F)F)N1CCNC(=O)C12CCCC2 [Compound 76] | 1360 nM | 64% |  |
| COc1cc(C(=O)NCCc2csc3nc(-c4ccccc4C)nn23)cc(OC)c1OC [Compound 64] | 4850 nM | 93% |  |
| O=C(NCCNC(=O)C(c1ccc(F)cc1)N1CCCCC1)c1ccccc1Cl (centres unmarked) [Compound 25] | 1670 nM | 52% |  |
| Oc1cccc(CN2CCCC(NCc3cc(-c4ccccc4)no3)C2)c1 (centres unmarked) [Compound 51] | 823 nM | 85% |  |
| Cc1ccc(NC(=O)Cn2cc3c(n2)CCCC3)cc1Cl [Compound 9] |  |  | specificity for IL-17A-receptor reporter over other cytokine receptor reporters [3]: reduce IL-17A-, not TNF-a-, receptor reporter activities; Emax ([3]; read-out: Emax): 67%; effect on IL17A-dependent gene expression [2]: inhibitory activities; also recorded: robust inhibitory effects |
| O=C(NCc1cccc(Cl)c1)C1(Cc2cscn2)CC2CCC1N2 (centres unmarked) [Compound 48] | 3620 nM | 68% |  |
| CCCN(C/C=C/c1ccccc1)C(=O)CCc1cc2n(n1)CCCNC2 [Compound 52] | 8450 nM | 90% |  |
| Cc1ccc(Cn2c(CNS(=O)(=O)c3ccc(F)c(Cl)c3)nc3cccnc32)cc1 [Compound 45] | 1300 nM | 67% |  |
| O=C(Nc1ccc(Cl)cc1Cl)c1cc(S(=O)(=O)N2CCCCCC2)ccc1F [Compound 7] |  |  | IC50 [3]: 15000 nM; Emax [3]: 57% |
| CCc1ccc(S(=O)(=O)c2c(C(=O)c3ccc(C)c(C)c3)cnc3ccccc23)cc1 [Compound 5] |  |  | IC50 [3]: 6820 nM; Emax [3]: 57% |
| COc1cc(NC(=O)C(Cc2ccccc2)NS(=O)(=O)c2cccs2)cc(OC)c1 (centres unmarked) [Compound 35] | 2560 nM | 97% |  |
| Cc1ccc(Cn2c(CNS(=O)(=O)c3ccc(Cl)s3)nc3cccnc32)cc1 [Compound 34] | 860 nM | 64% |  |
| O=c1n(Cc2cccc3ccccc23)nc(C2CCCNC2)n1-c1ccccc1 (centres unmarked) [Compound 62] | 1820 nM | 60% |  |
| COc1cc(CN2CCCC(CNC(=O)COc3ccccc3OC)C2)ccc1F (centres unmarked) [Compound 49] | 791 nM | 87% |  |
| CCc1ccccc1NC(=O)CN1C(=O)COc2ccc(S(=O)(=O)Nc3ccccc3)cc21 [Compound 16] | 1580 nM | 75% |  |

| Structure (SMILES) | IC50 [1] | Emax [1] | also measured |
| --- | --- | --- | --- |
| CC(C)Oc1ccccc1-c1cccc(C(=O)NCCc2nncn2C)c1 [Compound 57] | 2340 nM | 47% |  |
| O=C(NC1(CN2CCOCC2)CCCCC1)c1ccccc1N1CCOCC1 [Compound 40] | 2160 nM | 76% |  |
| CCc1ccc(S(=O)(=O)c2c(C(=O)c3ccccc3)cnc3ccc(CC)cc23)cc1 [Compound 1] |  |  | IC50 [3]: 4810 nM; Emax [3]: 78% |
| CCOC(=O)c1ccc(NC(=O)CCc2c(C)nc3c(c(C)nn3C)c2C)cc1 [Compound 8] |  |  | specificity for IL-17A-receptor reporter over other cytokine receptor reporters [3]: reduce IL-17A-, not TNF-a-, receptor reporter activities; Emax ([3]; read-out: Emax): 94%; effect on IL17A-dependent gene expression [2]: inhibitory activities; also recorded: robust inhibitory effects |
| COc1cccc(-c2nn(-c3ccccc3)cc2CN2CCC(NC(C)=O)C2)c1 (centres unmarked) [Compound 24] | 610 nM | 75% |  |
| CC(C)CN1CCc2[nH]cnc2C12CCN(C(=O)c1cccc(F)c1)CC2 [Compound 27] | 2160 nM | 66% |  |
| CC(C)C1N=C2c3ccccc3N=C(SCC(=O)NCc3ccc(F)cc3)N2C1=O (centres unmarked) [Compound 61] | 8780 nM | 88% |  |
| O=C(CSC1=Nc2ccccc2N=C(c2ccc(F)cc2)C1)NCc1ccc(F)cc1 [Compound 23] | 5300 nM | 76% |  |
| COc1ccc(NC(=O)CSc2nc3ccccc3n2CC(=O)N(C)C2CCCCC2)cc1 [Compound 60] | 6980 nM | 88% |  |
| COCCn1ccnc1CN(CCO)CCCOc1ccc(Cl)cc1Cl [Compound 13] | 1950 nM | 42% |  |
| COc1ccc(NC(=O)C(NS(=O)(=O)c2cccc3nsnc23)c2ccccc2)cc1 (centres unmarked) [Compound 38] | 3990 nM | 91% |  |
| CCOc1ccc(S(=O)(=O)c2c(C(=O)c3ccc(C)c(C)c3)cnc3ccccc23)cc1 [Compound 2] |  |  | IC50 [3]: 31400 nM; Emax [3]: 82%; effect on IL17A-dependent gene expression [2]: inhibitory activities |
| CC(C)(CO)CNC1CC(C)(C)Cc2c1cnn2-c1cccc(F)c1 (centres unmarked) [Compound 63] | 1780 nM | 65% |  |
| CCOc1ccc(S(=O)(=O)c2c(C(=O)c3ccc(CC)cc3)cnc3ccc(C)cc23)cc1 [Compound 3] |  |  | IC50 [3]: 12200 nM; Emax [3]: 44%; effect on IL17A-dependent gene expression [2]: inhibitory activities |
| COc1cccc(CNC(=O)CSC2=Nc3ccccc3N=C(c3ccc(F)cc3)C2)c1 [Compound 12] | 6300 nM | 32% |  |
| CN(Cc1ccc2nonc2c1)C(=O)C(c1ccc(F)cc1)N1CCCCC1 (centres unmarked) [Compound 17] | 1460 nM | 66% |  |
| CS(=O)(=O)c1ccc(C2(C(=O)N3CCSCC3)CCCCC2)cc1 [Compound 41] | 5890 nM | 98% |  |
